TGI data for 13 compounds are collected here from PubChem BioAssay (NCI).

Test systems include MDA-MB-231 breast; SNB-19 CNS; HT29 colon; HS 578T breast; MDA-N; HCT-15 colon; IGROV1 ovarian; UACC-62 melanoma; T-47D breast; K-562 leukemia.
Assay in all cases: growth of human tumour cells (NCI), 48 h

Each structure is given as a SMILES string.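 Following 48 hours of exposure in 96-well plates, responses at five concentrations were used to interpolate endpoints linearly. TGI: concentration producing complete growth inhibition.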 A value given as a limit tells only on which side of the number the result lay.

On to `C/C=C/[C@H]1O[C@@](O)([C@@H](C)[C@H](O)[C@H](C)[C@H]2OC(=O)/C(OC)=C/C(C)=C/[C@@H](C)[C@@H](O)[C@@H](CC)[C@@H](O)[C@H](C)C/C(C)=C/C=C/[C@@H]2OC)C[C@H](OC2CC(O)C(O)C(C)O2)[C@@H]1C` (some centres not stated), for which the TGI in the assay on MDA-MB-231 breast came out at 13.9 µM; in the assay with SNB-19 CNS, 15.7 µM; with HT29 colon it was 8.03 µM; in the assay on HS 578T breast it was 17.3 µM; in the assay on MDA-N, 12.2 µM; in the assay with HCT-15 colon, 8.8 µM. Further, the TGI was 17 µM in the assay on IGROV1 ovarian, 10.3 µM with UACC-62 melanoma and 0.336 µM in the assay with T-47D breast.
As for `COc1cc(C2SC(N)=Nc3c2c(C)nn3C(=O)c2ccccc2O)cc(OC)c1OC` (configuration not stated), the TGI in the assay on MDA-MB-231 breast was more than 10 µM; with SNB-19 CNS, more than 10 µM; with K-562 leukemia, more than 10 µM; in the assay on HT29 colon, more than 10 µM; in the assay on HS 578T breast it was 8.53 µM; in the assay on MDA-N it was more than 10 µM. Moreover, the TGI in the assay with HCT-15 colon is more than 10 µM; with IGROV1 ovarian it was 9.01 µM; in the assay on UACC-62 melanoma, 8.19 µM; in the assay on T-47D breast, more than 10 µM.
With `C=C(C)C(=O)O[C@H]1C/C(CO)=C/CCC(=C)C(OC(C)=O)[C@H]2OC(=O)C(=C)[C@H]12` (some centres not stated), the TGI was 25.4 µM in the assay on MDA-MB-231 breast; more than 100 µM in the assay on SNB-19 CNS; 11.7 µM in the assay with K-562 leukemia; 21.7 µM in the assay with HT29 colon; more than 100 µM with HS 578T breast; 19.1 µM with MDA-N. In addition, the TGI in the assay on HCT-15 colon was 33.6 µM; in the assay with IGROV1 ovarian it was 48.2 µM; in the assay with UACC-62 melanoma it was 23 µM; in the assay with T-47D breast it was 28 µM.
For the compound `CC(=O)ON(C(C)=O)c1ccc(-c2nc3ccccc3s2)cc1`, the TGI in the assay on MDA-MB-231 breast was more than 91.5 µM; with SNB-19 CNS it was more than 100 µM; with K-562 leukemia it was more than 100 µM; in the assay on HT29 colon, 52.4 µM; in the assay on HS 578T breast it was more than 88 µM; in the assay with MDA-N, more than 77 µM. In addition, the TGI in the assay on HCT-15 colon is more than 68.4 µM; in the assay with IGROV1 ovarian it was 36.9 µM; in the assay on UACC-62 melanoma, 48.7 µM; with T-47D breast, more than 66.5 µM.
In the case of `CCOC(=O)c1cnn2c1ncc1c(=O)n(NC(N)=O)ccc12`, the TGI in the assay on MDA-MB-231 breast, in the assay on SNB-19 CNS, with HT29 colon, with HS 578T breast, in the assay with MDA-N and in the assay on HCT-15 colon was more than 100 µM each time. In addition, the TGI with IGROV1 ovarian, with UACC-62 melanoma and with T-47D breast was more than 100 µM in each case.
With `Cc1c(NC(=S)NN)c(=O)n(-c2ccccc2)n1C`, the TGI in the assay with MDA-MB-231 breast, in the assay on SNB-19 CNS, with K-562 leukemia, in the assay on HT29 colon, in the assay with HS 578T breast and in the assay on MDA-N was more than 100 µM throughout. Also, the TGI with HCT-15 colon, in the assay with IGROV1 ovarian, with UACC-62 melanoma and with T-47D breast was more than 100 µM in each case.
Regarding `COc1cc(Cc2cc3c(c(C(=O)O)c2Br)OCO3)cc(OC)c1OC`, the TGI was more than 100 µM in the assay with MDA-MB-231 breast; more than 100 µM in the assay on SNB-19 CNS; more than 100 µM with K-562 leukemia; more than 100 µM in the assay with HT29 colon; more than 100 µM in the assay on HS 578T breast; 67 µM with MDA-N. Further, the TGI in the assay on HCT-15 colon, in the assay with IGROV1 ovarian, with UACC-62 melanoma and in the assay on T-47D breast was more than 100 µM in each case.
As to `COc1cc2c[n+](C)c3c4cc(OC)c(OC)cc4c(OC)cc3c2cc1OC`, the TGI is 19.8 µM with MDA-MB-231 breast; more than 100 µM in the assay with SNB-19 CNS; more than 41.5 µM in the assay on K-562 leukemia; more than 46.7 µM with HT29 colon; 12.6 µM with HS 578T breast; more than 45.9 µM in the assay with MDA-N. Moreover, the TGI is more than 100 µM in the assay on HCT-15 colon, more than 100 µM with UACC-62 melanoma and 12.2 µM in the assay on T-47D breast.
In the case of `CC(=O)Nc1ccc(Nc2cc(=O)[nH]c(=O)[nH]2)cc1`, the TGI in the assay on MDA-MB-231 breast, in the assay with SNB-19 CNS, with K-562 leukemia, with HT29 colon, with HS 578T breast and in the assay on MDA-N was more than 100 µM each time. The TGI with HCT-15 colon, in the assay with IGROV1 ovarian and in the assay with T-47D breast was more than 100 µM in each case.
As to `CC(=N\N)/C(C)=N/N=C(C)/C(C)=N/N=C(C)/C(C)=N/N=C(C)/C(C)=N/N`, the TGI in the assay on MDA-MB-231 breast, with SNB-19 CNS, in the assay with K-562 leukemia, in the assay on HT29 colon, in the assay with HS 578T breast and in the assay with MDA-N was more than 100 µM throughout. Moreover, the TGI with HCT-15 colon, with IGROV1 ovarian and in the assay with T-47D breast was more than 100 µM in each case.
Regarding `O=C1/C(=C/c2ccccc2)CCCC1CN1CCCCC1` (configuration not stated), the TGI in the assay with MDA-MB-231 breast was 3.89 µM; in the assay on SNB-19 CNS it was 29.1 µM; in the assay with HT29 colon it was 2.98 µM; in the assay on HS 578T breast it was 16.9 µM; in the assay with MDA-N it was 4.13 µM; in the assay on HCT-15 colon, 4.85 µM. The TGI in the assay on IGROV1 ovarian is 8.38 µM; in the assay on UACC-62 melanoma, 19.7 µM; in the assay on T-47D breast it was 3.92 µM.
In the case of `Cc1ccc(S(=O)(=O)N2CCCN(S(=O)(=O)c3ccc(C)cc3)CCN(S(=O)(=O)c3ccc(C)cc3)CCCSCC2)cc1`, the TGI in the assay on MDA-MB-231 breast, in the assay on SNB-19 CNS, in the assay on K-562 leukemia, in the assay with HT29 colon, with HS 578T breast and with MDA-N was more than 100 µM in each case. Further, the TGI with IGROV1 ovarian, with UACC-62 melanoma and with T-47D breast was more than 100 µM in each case.
For the compound `COC(=O)c1c2c(cc3c1CC1(Cc4cc5c(c(C=O)c4C1)CCCC5)C3)CCCC2` (configuration not stated), the TGI with MDA-MB-231 breast was more than 100 µM; in the assay with K-562 leukemia, 85.3 µM; in the assay with HT29 colon, more than 100 µM; with HS 578T breast, more than 100 µM; in the assay with MDA-N, more than 100 µM; with HCT-15 colon, more than 100 µM. Besides, the TGI in the assay with IGROV1 ovarian, with UACC-62 melanoma and in the assay with T-47D breast was more than 100 µM in each case.
